Where “and” joins values, the source holds several entries; their conditions need not be identical. Equal values may be shown once. Read-outs that look alike come from different tables or passages of the source.
What was measured:
[1] = value applied in pH partition calculation; cited from earlier work
SARS-CoV-2 [2] = test: Reported in vitro EC50 values of HCQ against SARS-CoV-2; format: cell-based; details: equated to 3 times the reported EC50
SARS-CoV-2 [3] = details: hamster, in vivo
SARS-CoV-2 [4] = system: SARS-CoV-2; parameters: method as in PMID 32444382; details: cited from earlier work
[5] = parameters: method as in ref 51 (Wei et al.); details: rats, ref 51 (Wei et al.); cited from earlier work
COVID-19 [6] = system: COVID-19; parameters: method as in ref 32 = [32]; 32 P. W. Horby , M. Landray , “Press release: No clinical benefit from use of hydroxychloroquine in hospitalised patients with COVID-19” (University of Oxford, 2020) .; details: patients admitted with COVID-19; cited from earlier work
[7] = Calculation of HCQ blood, total lung and lung compartment concentrations; parameters: species or system Syrian hamsters
Description: Starting from the measured total trough plasma concentrations measured at killing after 4 d or 5 d of HCQ treatment, total lung cytosolic concentrations of HCQ were calculated. First, the mean trough total plasma concentration of HCQ was used as a starting point to estimate the whole blood concentrations considering a blood to plasma ratio of 7.2, as reported by Tett et al. ([50]) and as mentioned in the summary of product characteristics of Plaquenil (Sanofi) (Eq. 1). whole blood concentration=plasma concentration×7.2.
Relying on the experimental Kp (tissue versus whole blood partition coefficient) values in rats, the total lung tissue concentrations of HCQ were determined. Based on the partition values as reported by Wei et al. ([51]), a lung Kp value of 50 was applied to estimate the total lung concentration (Eq. 2). total lung tissue concentration=mean blood concentration×50.
Based on these calculations, lung cytosolic HCQ concentrations correspond to 6% of the total lung tissue concentration (Eq. 3). total cytosolic lung tissue concentration=total lung tissue concentration×0.06.

[8] = HCQ plasma trough concentrations in hamsters (HPLC-MS); details: female, Syrian, hamster, intraperitoneal, 50 mg/kg/d
SARS-CoV-2 [9] = system: SARS-CoV-2; parameters: method as in ref 13 = [13]; 13 P. Maisonnasse ., Hydroxychloroquine in the treatment and prophylaxis of SARS-CoV-2 infection in non-human primates . Research Square:10.21203/RS.3.RS-27223/V1 (6 May 2020) .; details: therapeutic and prophylactic setting; cited from earlier work
[10] = parameters: method as in ref 50 (Tett et al.) and summary of product characteristics of Plaquenil; details: ref 50 (Tett et al.) and summary of product characteristics of Plaquenil; cited from earlier work
SARS-CoV-2 [11] = system: SARS-CoV-2; parameters: method as in PMID 32492293; details: postexposure prophylaxis, high doses of HCQ; cited from earlier work
SARS-CoV-2 [12] = details: interquartile range of 5.4 (25 to 75%); read-out: reported in vitro EC50, median value; cited from earlier work
[13] = Favipiravir plasma trough concentrations in hamsters; format: in vivo, Syrian hamsters; details: for concentration at 16 h after last treatment: female, hamster, plasma
[14] = parameters: method as in PMID 32405421; details: cited from earlier work
[15] = human, in vivo; cited from earlier work
COVID-19 [16] = system: COVID-19; parameters: method as in ref 39 = [39]; 39 C. Chen ., Favipiravir versus arbidol for COVID-19: A randomized clinical trial . medRxiv:10.1101/2020.03.17.20037432 (20 March 2020) .; details: cited from earlier work
SARS-CoV-2 [17] = system: SARS-CoV-2; parameters: method as in PMID 33741945; details: cited from earlier work

CCN(CCO)CCCC(C)Nc1ccnc2cc(Cl)ccc12 (stereo not shown) [HCQ, hydroxychloroquine]
pKa [1]: 9.67 | estimated EC90 (3 times the EC50), target lung concentration (SARS-CoV-2 [2]): 13.5 ± 16.3 µM | radiological improvement (micro-CT) vs nontreated animals (SARS-CoV-2 [3]): no radiological improvement | reduction in viral RNA load in the ileum or stool (SARS-CoV-2 [3]): no reduction | reduction of infectious virus titers in the lungs (SARS-CoV-2 [3]): no significant reduction | reduction of viral RNA in lung vs untreated infected hamsters (SARS-CoV-2 [3]): 0.3 log10 viral RNA copies per mg of lung | weight loss (SARS-CoV-2 [3]): < 5% | virus titers in SARS-CoV-2-infected ferrets (SARS-CoV-2 [4]): not able to significantly reduce | lung Kp (tissue versus whole blood partition coefficient) [5]: 50 | mortality or duration of hospital stay (COVID-19 [6]): did not result in a beneficial effect | lung cytosolic HCQ concentration as share of total lung tissue concentration ([7]; pH partition theory, relative lung compartment volumes): 6% | endosomal/lysosomal HCQ concentration ([7]; trough, HCQ sulfate 50 mg/kg/d): 1.9 mM | interstitial concentration in lung ([7]; trough, HCQ sulfate 50 mg/kg/d): 5.4 µM | total lung concentration (Eq. 2) ([7]; trough, HCQ sulfate 50 mg/kg/d, blood concentration × 50): 90.2 ± 69.4 µM | whole blood concentration (Eq. 1) ([7]; trough, HCQ sulfate 50 mg/kg/d, plasma concentration × 7.2): 1.8 ± 1.4 µM | total cytosolic lung tissue concentration (Eq. 3) ([7]; trough, HCQ sulfate 50 mg/kg/d, total lung × 0.06): 5.4 ± 4.2 µM | concentration at 4 d post infection (at killing) [8]: 84 ng/mL and 300 nM | viral loads in SARS-CoV-2-infected cynomolgus macaques (SARS-CoV-2 [9]): did not result in a significant decrease | blood to plasma ratio [10]: 7.2 | prevention of SARS-CoV-2 infection or COVID-19-like disease (SARS-CoV-2 [11]): did not prevent | EC50 (SARS-CoV-2 [12]): 4.5 µM

NC(=O)c1nc(F)c[nH]c1=O [favipiravir]
decrease of viral RNA in lung vs untreated infected hamsters (SARS-CoV-2 [3]): 1.0 log10 RNA copies per mg of lung tissue | effect on viral RNA in ileum and stool (SARS-CoV-2 [3]): a smaller effect | hamsters with infectious virus in the lungs (SARS-CoV-2 [3]): two | histological lung pathology (H&E cumulative severity score) (SARS-CoV-2 [3]): significant improvements | reduction in viral RNA levels in the lungs (SARS-CoV-2 [3]): smaller inhibitory effect | reduction of relative infectivity of lung virus particles (SARS-CoV-2 [3]): 136 fold and 172 fold | relative lung viral particle infectivity (infectious particles / viral RNA genomes) (SARS-CoV-2 [3]): did not decrease | weight loss (SARS-CoV-2 [3]): over 5% | weight loss, on average (SARS-CoV-2 [3]): 2% | toxicity signs in clinical presentation (SARS-CoV-2 [3]; ip): No toxicity signs | concentration at 16 h after last treatment ([13]; Syrian, intraperitoneal, 1000 mg/kg/d, favipiravir 1,000 mg/kg/d i.p. BID for 4 d, read-out: plasma trough level): ~4400 ng/mL | concentration at 16 h after last treatment ([13]; intraperitoneal, 1000 mg/kg/d, favipiravir 1,000 mg/kg/d i.p. BID for 4 d, read-out: plasma trough level): 4400 ± 1600 ng/mL | concentration at 16 h after last treatment ([13]; intraperitoneal, favipiravir 600 mg/kg/d i.p. BID for 4 d, read-out: plasma trough level): 1200 ± 300 ng/mL | concentration at 16 h after last treatment ([13]; favipiravir 300 mg/kg/d oral BID for 4 d, read-out: average plasma trough concentration): 200 ± 30 ng/mL | favipiravir trough concentrations in sentinel hamsters vs infection model ([13]; preexposure prophylaxis with 300 and 1,000 mg/kg/d, dosing for 5 d): similar | teratogenicity [14]: teratogenic | median plasma trough concentration [15]: 25.9 µg/mL | clinical recovery rate vs arbidol control group (COVID-19 [16]; COVID-19 patients with hypertension and/or diabetes and critically ill patients): not significantly different | clinical recovery rate at day 7 vs arbidol control group (COVID-19 [16]; COVID-19 patients with mild symptoms): higher | viral replication in the lung (SARS-CoV-2 [17]; favipiravir 1,400 mg/kg/d TID started 1 d before intranasal infection): undetectable | toxicity (weight loss from first day of treatment) (SARS-CoV-2 [17]; favipiravir 1,400 mg/kg/d TID): high toxicity | virus infection in hamsters (SARS-CoV-2 [17]; favipiravir ~1,400 mg/kg/d TID): significant reductions
